Read-outs that look alike come from different tables or passages of the source.
Assays:
[1] = tested on: rabbit; assay: Embryolethal or teratogenic actions, rabbit; type: in vivo
Description: (§1) 30-week oral administration of (±)-COMPOUND to rats and dogs indicate no toxicity at dosages up to 272 mg/kg/day in rats and up to 10 mg/kg/day in dogs. (±)-COMPOUND is found to have no embryolethal or teratogenic actions in the rat at dosages up to 300 mg/kg and in the rabbit at dosages up to 30 mg/kg.

[2] = tested on: Guinea-pigs; assay: Reversal of bombesin-induced bronchospasm in vivo; conditions: i.v. at the height of bronchospasm induced by bombesin (ca. 500 ng/kg); one series of tests; of the order of
Description: (§2) Guinea pigs are anaesthetised with pentobarbital (30 mg/kg i.p.) and phenobarbital (100 mg/kg i.p.) and ventilated via a tracheal cannula (10 ml/kg, lHz). Ventilation is monitored either by a pressure transducer measuring air-flow (Konzett-Rossler method), or by a Fleisch flow transducer in line with the inspiratory circuit. When making measurements of flow, coincident pressure changes in the thorax are monitored directly via an intrathoracic trochar, permitting display of differential pressure relative to the trachea. From this information resistance and compliance are calculated at each inspiration. Test substance is, administered via an indwelling cannula within a jugular vein. Blood pressure is monitored at the carotid artery. Test substance is administered immediately before injection of a bronchoconstrictor agent - PAF (56 ng/kg), acetylcholine (32 µg/kg), histamine(10 µg/kg), serotonin (10 µg/kg), substance P ([…]) or leukotriene C4 (5 µg/kg).
Guinea-pigs are prepared for measurement of resistance and compliance as under lb^l above. Intravenous injection of bombes in (ca. 500 ng/kg) as a bolus, induces increased airways resistance which is sustained over a period of several minutes. Capacity of test-substance to reverse response when administered i.v. at the height of bombesin-induced bronchospasm serves as a measure of efficacy in reversing established bronchospasm.

[3] = tested on: Conscious guinea-pigs; assay: Inhibition of acetylcholine-mist bronchoconstriction following pulmonary administration; type: in vivo; conditions: inhalation of mist 10 mins. prior to 0.3% mist of acetylcholine
Description: Conscious guinea-pigs are subjected to inhalation of COMPOUND or placebo (vehicle) 10 mins. prior to explosure to a 0.3% mist of acetylcholine. COMPOUND is administered as a mist generated from COMPOUND in aqueous solution at concentrations of from 1 mg/ml to 0.001 mg/ml, using a jet nebuliser. Prolongation of time prior to collapse in treated groups as compared with placebo groups is taken as a measure of bronchodilator efficacy.

[4] = tested on: Guinea pigs; assay: Inhibition of bronchospasm in vivo (Konzett-Rossler preparation); conditions: dosages of the order of 1 mg/kg via jugular vein immediately before PAF, acetylcholine, histamine, serotonin, substance P or leukotriene C4
Description: as §2

[5] = tested on: guinea-pig tracheal ring preparations; assay: Bronchospasmolytic activity in vitro, isolated guinea-pig trachea; type: cell-based; conditions: for IC50: guinea-pig tracheal rings, one series of tests
Description: The trachea is excised from freshly sacrificed guinea-pigs and transected in the transverse plane to give rings of tissue of ca. 2 mm. Individual rings are mounted vertically on stainless steel supports, one of which is fixed at the base of an organ bath, the other being attached to a tension transducer. The rings are bathed in modified Tyrode solution at 37°C and gassed with O2/CO2 (95:5, v/v). Rings prepared in this manner, preloaded with 1 g, generate spontaneous tone and, after a period of equilibration, relax on addition of spasmolytic drugs. Tension can be enhanced by addition of carbachol (10-^6M) or histamine (10-^4M). To ascertain spasmolytic activity, test substances are dissolved in physiological saline and added in increasing quantities to the organ bath at 5 min. intervals to provide a cumulative concentration-effect curve.

[6] = tested on: Guinea pigs; assay: Suppression of airways hyperreactivity, sensitised animals (immune complexes); type: in vivo
Description: Guinea pigs are anaesthetised and airways resistance and compliance recorded as described under example lb^l above. […] Platelets are isolated and labelled with ^lllindium prior to intravenous infusion. Platelet accumulation is monitored by external crystal detectors [c.f. Morley et al. […] Allergic reaction is initiated by i.v. injection of preformed immune complexes (bovine y-globulin/ anti-bovine y-globulin), using a dose that is scarcely sufficient to induce bronchospasm at the first injection. By repeating the dose at regular (10 min.) intervals, bronchospasm of progressively increasing amplitude is evidenced. This effect is paralleled by an incremental retention of platelets within the airway vasculature. Following the last dose of immune complexes, the dose-effect relationship to histamine is re-defined. In animals so treated, induction of airways hyperreactivity is consistently observed.

[7] = tested on: dogs; assay: 30-week oral administration toxicity, dogs; type: in vivo
Description: as §1

[8] = tested on: Guinea-pigs; assay: Suppression of airways hyperreactivity, PAF-treated animals; type: in vivo
Description: Guinea-pigs are anaesthetised and prepared for recording of lung function as described under example lb^l above. Intravenous injection of low dose bombesin (240 ng/kg) establishes airways sensitivity to spasmogens. Following infusion of PAF over lhr. […] Induction of airways hyperreactivity by PAF is a platelet-dependent phenomenon and development of. airways hyperreactivity in this model in paralleled by observed accumulation of platelets within the thorax.

[9] = tested on: rats; assay: 30-week oral administration toxicity, rats; type: in vivo
Description: as §1

[10] = tested on: rat; assay: Embryolethal or teratogenic actions, rat; type: in vivo
Description: as §1

[11] = tested on: healthy trial volunteers; assay: Tolerability and safety in healthy trial volunteers; type: in vivo, humans
[12] = tested on: guinea-pig peritoneal cavity; assay: Influence on eosinophil accumulation in the peritoneal cavity in vivo
Description: Effect of test-substance is conveniently determined by measurement of influence on PAF-induced eosinophil accumulation in the guinea-pig peritoneal cavity in vivo. In the guinea-pig, there is a substantial (up to 40%) resident population of eosinophils in the peritoneal cavity and eosinophil accumulation in the peritoneal cavity relative to control animals ca. 24 - 48 hrs. following injection of PAF i.p. at dosages of ca. 10µg/kg.
To esablish eosinophil accumulation, test animals receive 10µg/kg PAF i.p., 2 days prior to sacrifice. Smears from the peritoneal cavity are prepared employing Leishman's Stain after fixation with 95% methanol. At least 500 white cells are differentiated for each estimation. Test substance is administered s.c. via a minipump for four days prior to sacrifice.

[13] = tested on: subjects exhibiting heart insufficiency; assay: Tolerability and safety in subjects exhibiting heart insufficiency; type: in vivo, humans
[14] = intravenous dosages of up to 100 mg by perfusion over 10 mins.

COc1cc2c(cc1OC)[C@@H]1CN(C)CC[C@@H]1N=C2c1ccc(NC(C)=O)cc1 (racemic) [(±)-COMPOUND, cis-6-(4-acetanilido)-8,9-dimethoxy-2-methyl-1,2,3,4,4a,10b-hexahydrobenzo[c][1,6]naphthyridin]
dosages with no embryolethal or teratogenic actions [1]: up to 30 mg/kg
ID50 values, abrogation of bombesin-induced bronchospasm [2]: 0.08 to 0.48 mg/kg
amount introduced into the exposure chamber giving detectable protection against bronchospasm [3]: ≥ 2 µg
constrictor response to bronchoconstrictor agents [4]: strongly inhibits
relaxant action on tracheal rings from animals desensitised to β2-agonist therapy ([5]; animals with prolonged exposure to high-dose isoprenaline in vivo): not influenced
IC50 ([5]; carbachol (10-^6M), read-out: IC50 values for inhibition of contraction due to carbachol): 5.8 µM
IC50 ([5]; histamine (10-^4M), read-out: IC50 values for inhibition of contraction due to histamine): 1.7 µM
IC50 ([5]; spontaneous tone, read-out: IC50 values for inhibition of spontaneous tone): 3.2 µM
relaxant action in the presence of propanolol ([5]; propanolol (1 uM)): undiminished
dosage giving suppression of induced airways resistance ([6]; advance administration i.v., ca., compared with untreated controls): ≥ 1 mg/kg
effective dose, inhibition of airways hyperreactivity ([6]; one test series): 0.35 mg/kg
dosages with no toxicity [7]: up to 10 mg/kg/day
thoracic platelet accumulation in response to PAF ([8]; 1 mg/kg bolus and infusion at 1 mg/kg/hr i.v.): inhibited
dosage giving suppression of airways hyperreactivity induction ([8]; advance administration i.v., ca., PAF infusion 600 ng/kg, bombesin 240 ng/kg): ≥ 0.1 mg/kg
ID50, suppression of airways hyperreactivity induction ([8]; i.v., one series of tests, of the order of): ~1 mg/kg
dosages with no toxicity [9]: up to 272 mg/kg/day
dosages with no embryolethal or teratogenic actions [10]: up to 300 mg/kg
tolerability ([11]; 600 mg once daily for 3 days (6 subjects)): well tolerated
single oral dosages with no occurrence of side effects or relevant changes in laboratory parameters ([11]; healthy trial volunteers (27 subjects)): up to 800 mg
PAF-induced eosinophil accumulation ([12]; of the order of 2 mg/kg/day s.c. via minipump for four days, animals receiving 10µg/kg PAF i.p.): inhibition of eosinophil accumulation
resident eosinophil population ([12]; of the order of 10 mg/kg/day s.c. via minipump for four days, non-PAF-treated animals, vs untreated controls): decrease
arterial pressure [13, 14]: light fall
heart frequency [13, 14]: increase
intravenous dosages well tolerated ([13]; perfusion over 10 mins., subjects exhibiting heart insufficiency): up to 100 mg
systolic blood-pressure ([13]; placebo controlled trials, after 60 mins.): light increase
heart frequency ([13]; placebo controlled trials, oral): no relevant change
oral dosages with no significant side effects, well tolerated ([13]; subjects exhibiting heart insufficiency, oral): up to 600 mg

Source: patent publication EP0247971A2, “Novel pharmaceutical compositions comprising and use of cis-6-(4-acetanilido)-8,9-dimethoxy-2-methyl-1,2,3,4,4a,10b-hexahydrobenzo[c][1,6]naphthyridin” (SANDOZ AG, priority 1986, dated 1987)
